Where two headings read alike, the source gives them in different places.

Assay [1] addresses Human carbonic anhydrase II (hCA-II) (Homo sapiens (Human), UniProt P00918). Kind of assay: Human carbonic anhydrase-II inhibition assay (absorbance, 4-nitrophenyl acetate substrate). The class given is biochemical.
For a further assay, the target named is human ATX (Homo sapiens (Human), UniProt Q13822). The assay is described as follows: Human ATX enzyme inhibition assay (fluorescence quenching, MR121 substrate). The assay is classed as biochemical. The gist of the method: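 Human His-tagged ATX (30 nM final) preincubated 15 min at 30 °C with serially diluted compounds in Tris buffer pH 8.0 with Ca2+, Mg2+ and 0.01% Triton X-100. MR121/tryptophan-labelled substrate analogue (1 μM final) then added for 15 min at 30 °C; cleavage read by fluorescence dequenching.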

Where [2] appears, read: hCA II 8 nM, 4-NPA 2.5 mM, absorbance 340 nm, room temperature 1 hour, read-out: CA-II IC50.
[3] abbreviates: human His-tagged ATX 30 nM, MR121 substrate 1 μM, 30° C., read-out: ATX IC50.

Regarding `NS(=O)(=O)c1ccc(C(=O)N2CC3=C(CN(C(=O)CCc4ccc(OC(F)(F)F)cc4)C3)C2)nc1` [Example 3.01, 6-[2-[3-[4-(trifluoromethoxy)phenyl]propanoyl]-1,3,4,6-tetrahydropyrrolo[3,4-c]pyrrole-5-carbonyl]pyridine-3-sulfonamide], the IC50 was 12 nM in assay [1] and 5 nM at human ATX.

For the compound `NS(=O)(=O)c1ccc(C(=O)N2CC3=C(CN(C(=O)CCc4ccc(OC(F)(F)F)cc4)C3)C2)c(F)c1` [Example 3.02, 3-fluoro-4-[2-[3-[4-(trifluoromethoxy)phenyl]propanoyl]-1,3,4,6-tetrahydropyrrolo[3,4-c]pyrrole-5-carbonyl]benzenesulfonamide], the IC50 in assay [1] was determined as 5 nM; at human ATX, 6 nM.

For the compound `NS(=O)(=O)c1ccc(C(=O)N2CC3=C(CN(C(=O)/C=C/c4ccc(OC(F)(F)F)cc4)C3)C2)nc1` [Example 3.03, 6-[2-[(E)-3-[4-(trifluoromethoxy)phenyl]prop-2-enoyl]-1,3,4,6-tetrahydropyrrolo[3,4-c]pyrrole-5-carbonyl]pyridine-3-sulfonamide], the values for the IC50 (in assay [1]; at human ATX) were 17 nM and 4 nM, respectively.

`NS(=O)(=O)c1ccc(C(=O)N2CC3=C(CN(C(=O)COc4ccc(OC(F)(F)F)cc4)C3)C2)nc1` [Example 3.04, 6-[2-[2-[4-(trifluoromethoxy)phenoxy]acetyl]-1,3,4,6-tetrahydropyrrolo[3,4-c]pyrrole-5-carbonyl]pyridine-3-sulfonamide]: the values for the IC50 (in assay [1]; against human ATX) were 17 nM and 7 nM, respectively.

Turning to `NS(=O)(=O)c1ccc(C(=O)N2CC3=C(CN(C(=O)COc4ccc(OC(F)(F)F)cc4)C3)C2)c(F)c1` [Example 3.05, 3-fluoro-4-[2-[2-[4-(trifluoromethoxy)phenoxy]acetyl]-1,3,4,6-tetrahydropyrrolo[3,4-c]pyrrole-5-carbonyl]benzenesulfonamide], the half-inhibitory concentration (IC50) came out at 9 nM in assay [1] and 4 nM against human ATX.

In the case of `Cc1nnn(Cc2cc(C#N)ccc2CCC(=O)N2CC3=C(C2)CN(C(=O)c2ccc(S(N)(=O)=O)cc2F)C3)n1` [Example 3.06, 4-[2-[3-[4-cyano-2-[(5-methyltetrazol-2-yl)methyl]phenyl]propanoyl]-1,3,4,6-tetrahydropyrrolo[3,4-c]pyrrole-5-carbonyl]-3-fluorobenzenesulfonamide], the 50% inhibitory concentration (IC50) is 16 nM in assay [1] and 2 nM against human ATX.

On to `Cc1nnn(Cc2cc(Cl)ccc2CCC(=O)N2CC3=C(C2)CN(C(=O)c2ccc(S(N)(=O)=O)cc2F)C3)n1` [Example 3.07, 4-[2-[3-[4-chloro-2-[(5-methyltetrazol-2-yl)methyl]phenyl]propanoyl]-1,3,4,6-tetrahydropyrrolo[3,4-c]pyrrole-5-carbonyl]-3-fluorobenzenesulfonamide], for which the IC50 stood at 5 nM in assay [1] and 4 nM against human ATX.

With `Cc1cnn(Cc2cc(C(F)(F)F)ccc2CCC(=O)N2CC3=C(C2)CN(C(=O)c2ccc(S(N)(=O)=O)cc2F)C3)n1` [Example 3.08, 3-fluoro-4-[2-[3-[2-[(4-methyltriazol-2-yl)methyl]-4-(trifluoromethyl)phenyl]propanoyl]-1,3,4,6-tetrahydropyrrolo[3,4-c]pyrrole-5-carbonyl]benzenesulfonamide], the figures for the IC50 (in assay [1]; against human ATX) were 6 nM and 1 nM, respectively.

`Cc1cn(Cc2cc(C(F)(F)F)ccc2CCC(=O)N2CC3=C(C2)CN(C(=O)c2ccc(S(N)(=O)=O)cc2F)C3)nn1` [Example 3.09, 3-fluoro-4-[2-[3-[2-[(4-methyltriazol-1-yl)methyl]-4-(trifluoromethyl)phenyl]propanoyl]-1,3,4,6-tetrahydropyrrolo[3,4-c]pyrrole-5-carbonyl]benzenesulfonamide]: the half-maximal inhibitory concentration (IC50) in assay [1] worked out at 11 nM; at human ATX it was 1 nM.

As for `Cc1nnn(Cc2cc(C(F)(F)F)cnc2CCC(=O)N2CC3=C(C2)CN(C(=O)c2ccc(S(N)(=O)=O)cc2F)C3)n1` [Example 3.10, 3-fluoro-4-[2-[3-[3-[(5-methyltetrazol-2-yl)methyl]-5-(trifluoromethyl)pyridin-2-yl]propanoyl]-1,3,4,6-tetrahydropyrrolo[3,4-c]pyrrole-5-carbonyl]benzenesulfonamide], the 50% inhibitory concentration (IC50) is 5 nM in assay [1] and 2 nM at human ATX.

With `Cc1nnn(Cc2cc(C(F)(F)F)ccc2CCC(=O)N2CC3=C(C2)CN(C(=O)c2ncc(S(N)(=O)=O)cc2F)C3)n1` [Example 4.00, 5-fluoro-6-[2-[3-[2-[(5-methyltetrazol-2-yl)methyl]-4-(trifluoromethyl)phenyl]propanoyl]-1,3,4,6-tetrahydropyrrolo[3,4-c]pyrrole-5-carbonyl]pyridine-3-sulfonamide], the half-maximal inhibitory concentration (IC50) in assay [1] (setting [2]) was 3.8 nM; at human ATX (setting [3]), 10 nM.

Take `CC(C)(C)C(=O)Nc1cc2ccccc2nc1COC(=O)N1CC2=C(C1)CN(C(=O)c1ccc(S(N)(=O)=O)cc1F)C2` [Example 4.01, [3-(2,2-dimethylpropanoylamino)quinolin-2-yl]methyl 2-(2-fluoro-4-sulfamoylbenzoyl)-1,3,4,6-tetrahydropyrrolo[3,4-c]pyrrole-5-carboxylate]: the half-inhibitory concentration (IC50) was 3.6 nM in assay [1] (setting [2]) and 3 nM on human ATX (setting [3]).

As for `CC(C)(C)C(=O)Nc1cc(C(F)(F)F)cnc1COC(=O)N1CC2=C(C1)CN(S(=O)(=O)c1ccc(S(N)(=O)=O)cc1F)C2` [Example 5.00, [3-(2,2-dimethylpropanoylamino)-5-(trifluoromethyl)pyridin-2-yl]methyl 5-(2-fluoro-4-sulfamoylphenyl)sulfonyl-1,3,4,6-tetrahydropyrrolo[3,4-c]pyrrole-2-carboxylate], the IC50 in assay [1] (setting [2]) turned out to be 17.6 nM; on human ATX (setting [3]) it was 7 nM.

These data come from patent publication US10647719B2, “Bicyclic compounds as dual ATX/CA inhibitors” (Hoffmann-La Roche Inc., priority 2015, dated 2020).
